Converted amounts (≈) assume the structure as drawn. Numbered stars: 1 amine (or outer) side, 2 acyl side, 3 side chain; on linkers, the order of the positions; unused ones are H or OH. Bridge positions count the residues as written; N and C are the ends. Square brackets hold non-standard residues; d marks the D form. Peptide text beside a SMILES is read from it. * marks the point of attachment. pTerphenylCO(4''-OnC5H11) = CCCCCOc1ccc(-c2ccc(-c3ccc(C(=O)*)cc3)cc2)cc1; Orn(4R-OH,5R-OH) = O=C([C@H](C[C@@H](O)[C@@H](O)N[*:3])N[*:1])[*:2]; hTyr(3S-OH,4S-OH) = N[C@H](C(=O)O)[C@H](O)[C@@H](O)c1ccc(O)cc1; Pro(3S-OH,4S-Me) = C[C@H]1CN[C@H](C(=O)O)[C@H]1O; Gln(3R-OH) = NC(=O)C[C@@H](O)[C@H](N)C(=O)O; X1 = CCCCCCCCCCCCC[C@H](CC(=O)[*:1])O[*:2]; Pro(3S-OH) = O=C(O)[C@H]1NCC[C@@H]1O; d(aThr) = C[C@@H](O)[C@@H](N)C(=O)O; Hyp = O=C(O)[C@@H]1C[C@@H](O)CN1; Orn = NCCC[C@H](N)C(=O)O
Tests used:
Beta-1,3-glucan synthase = Beta-1,3-glucan synthase (Candida albicans, UniProt O13428); assay: In vitro inhibitory activity against Beta glucan synthase
Mus musculus [1] = species on record: Mus musculus; assay: Hepatotoxicity using inclusion-body formation test in hepatocytes of mice; assay type: functional, Hepatocyte
Candida albicans [2] = assay: In vitro antifungal activity against Candida albicans CY1002 using 80 percent serum; assay type: functional, organism-based
Mus musculus [3] = assay: In vivo efficacy against Aspergillus fumigatus CF1083 1E4 conidia/g for pulmonary aspergillosis in mice after iv treatment on day 14; assay type: functional; settings: 336 h
Candida albicans [4] = assay: In vitro antifungal activity against Candida albicans CY1002; assay type: functional, organism-based
Mus musculus [5] = assay: In vivo efficacy against Candida albicans CY1002 5E6 cells for systemic candidiasis in mice after iv treatment on day 7; assay type: functional; settings: CY1002 5E6, iv, 168 h
Pichia kudriavzevii = assay: Antifungal activity against Candida krusei ATCC 20579; assay type: functional
Candida albicans [6] = assay: Antifungal activity against Candida albicans KB fluconazole resistant strain.; assay type: functional
Candida albicans [7] = assay: Antifungal activity against Candida albicans ATCC 48130; assay type: functional
Nakaseomyces glabratus = assay: Antifungal activity against Candida glabrata ATCC 2001; assay type: functional
Candida tropicalis = assay: Antifungal activity against Candida tropicalis ATCC 13803; assay type: functional
Aspergillus fumigatus = assay: Antifungal activity against Aspergillus fumigatus MTU06002; assay type: functional
Lomentospora prolificans = assay: Antifungal activity against Scedosporium prolificans ATCC 20054; assay type: functional
Scedosporium boydii = assay: Antifungal activity against Scedosporium […] IFM40731N.; assay type: functional

Chain of Beta-1,3-glucan synthase (O13428 whole entry): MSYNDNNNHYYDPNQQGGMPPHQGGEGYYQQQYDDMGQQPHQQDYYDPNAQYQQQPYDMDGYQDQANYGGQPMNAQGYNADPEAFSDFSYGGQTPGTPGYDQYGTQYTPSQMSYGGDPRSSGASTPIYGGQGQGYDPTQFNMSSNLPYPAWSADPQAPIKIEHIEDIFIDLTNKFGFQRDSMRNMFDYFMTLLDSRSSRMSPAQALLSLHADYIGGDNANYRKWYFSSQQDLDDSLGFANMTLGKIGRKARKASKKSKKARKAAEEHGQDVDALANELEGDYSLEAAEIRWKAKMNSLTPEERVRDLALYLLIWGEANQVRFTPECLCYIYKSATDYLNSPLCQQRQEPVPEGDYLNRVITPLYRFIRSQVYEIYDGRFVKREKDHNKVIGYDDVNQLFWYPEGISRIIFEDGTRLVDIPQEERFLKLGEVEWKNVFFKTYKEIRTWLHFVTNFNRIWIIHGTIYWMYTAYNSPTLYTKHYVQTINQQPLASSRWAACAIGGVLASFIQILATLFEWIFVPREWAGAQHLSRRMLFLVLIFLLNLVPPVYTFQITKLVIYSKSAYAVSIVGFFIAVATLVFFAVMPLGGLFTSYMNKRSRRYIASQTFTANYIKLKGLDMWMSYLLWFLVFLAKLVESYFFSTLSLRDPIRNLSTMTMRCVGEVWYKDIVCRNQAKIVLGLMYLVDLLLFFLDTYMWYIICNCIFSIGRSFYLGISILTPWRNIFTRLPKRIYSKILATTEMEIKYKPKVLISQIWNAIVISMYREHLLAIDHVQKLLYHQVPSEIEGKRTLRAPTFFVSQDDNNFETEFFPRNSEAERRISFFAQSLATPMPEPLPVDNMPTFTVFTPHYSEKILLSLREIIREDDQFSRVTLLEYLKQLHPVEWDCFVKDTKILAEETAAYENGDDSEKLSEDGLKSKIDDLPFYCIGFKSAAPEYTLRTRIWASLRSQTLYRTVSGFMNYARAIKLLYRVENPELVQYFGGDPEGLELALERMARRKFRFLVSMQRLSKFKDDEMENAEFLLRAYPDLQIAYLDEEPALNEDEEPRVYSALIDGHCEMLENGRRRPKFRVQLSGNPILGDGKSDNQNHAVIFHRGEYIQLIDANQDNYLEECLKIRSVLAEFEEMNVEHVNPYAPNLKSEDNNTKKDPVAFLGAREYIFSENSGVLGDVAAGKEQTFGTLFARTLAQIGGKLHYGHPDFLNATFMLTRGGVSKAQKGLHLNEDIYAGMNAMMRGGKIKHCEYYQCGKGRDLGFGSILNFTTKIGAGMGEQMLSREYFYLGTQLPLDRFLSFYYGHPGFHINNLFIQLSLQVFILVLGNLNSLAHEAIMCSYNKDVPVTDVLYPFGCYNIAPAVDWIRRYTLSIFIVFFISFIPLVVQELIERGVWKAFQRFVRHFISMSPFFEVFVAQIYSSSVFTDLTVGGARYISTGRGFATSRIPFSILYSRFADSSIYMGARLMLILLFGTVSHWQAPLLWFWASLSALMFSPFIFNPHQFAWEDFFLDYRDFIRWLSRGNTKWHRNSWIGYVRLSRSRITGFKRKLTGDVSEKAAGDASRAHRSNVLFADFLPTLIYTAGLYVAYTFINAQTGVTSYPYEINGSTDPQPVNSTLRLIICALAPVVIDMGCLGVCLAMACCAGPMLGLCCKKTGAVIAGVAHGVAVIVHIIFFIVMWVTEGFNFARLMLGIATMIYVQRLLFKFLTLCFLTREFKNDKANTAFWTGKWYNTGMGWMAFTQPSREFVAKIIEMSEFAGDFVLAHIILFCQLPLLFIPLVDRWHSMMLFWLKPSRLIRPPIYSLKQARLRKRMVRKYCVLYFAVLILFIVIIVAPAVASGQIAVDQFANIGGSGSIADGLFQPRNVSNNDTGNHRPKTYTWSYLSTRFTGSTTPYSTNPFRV

Structure (SMILES)	IC50 (Beta-1,3-glucan synthase) [pM]	Observed at (Mus musculus [1]) [µg/mL]	IC50 (Candida albicans [2]) [µg/mL]	ED50 (Mus musculus [3]) [mg/kg]	IC50 (Candida albicans [4]) [µg/mL]	ED50 (Mus musculus [5]) [mg/kg]	MIC (Pichia kudriavzevii) [µg/mL]	MIC (Candida albicans [6]) [µg/mL]	MIC (Candida albicans [7]) [µg/mL]	MIC (Nakaseomyces glabratus) [µg/mL]	MIC (Candida tropicalis) [µg/mL]	MIC (Aspergillus fumigatus) [µg/mL]	MIC (Lomentospora prolificans) [µg/mL]	MIC (Scedosporium boydii) [µg/mL]
CC[C@H](C)C[C@H](C)CCCCCCCCC(=O)N[C@H]1C[C@@H](O)[C@@H](NCCN)NC(=O)[C@@H]2[C@@H](O)CCN2C(=O)[C@H]([C@H](O)CCN)NC(=O)[C@H]([C@H](O)[C@@H](O)c2ccc(O)cc2)NC(=O)[C@@H]2C[C@@H](O)CN2C(=O)[C@H]([C@@H](C)O)NC1=O	1300	–	–	–	–	–	–	–	–	–	–	–	–	–
CCCCCCCCCCCCC[C@@H]1CC(=O)N[C@@H]([C@@H](C)O)C(=O)N[C@H](C)C(=O)N[C@@H](Cc2ccc(O)cc2)C(=O)N[C@@H](C(C)C)C(=O)N2C[C@H](O)C[C@H]2C(=O)N[C@@H]([C@@H](C)O)C(=O)N[C@@H]([C@@H](C)O)C(=O)N2CC[C@H](O)[C@H]2C(=O)N[C@@H]([C@H](O)CC(N)=O)C(=O)NCC(=O)N[C@@H]([C@@H](C)O)C(=O)N[C@@H](CCCN(CCCN)C(=O)[C@H](N)CCCN)C(=O)O1	830	30	0.27 (≈ 0.158 µM)	5.2	0.37 (≈ 0.217 µM)	0.05	–	–	–	–	–	–	–	–
CCCCCCCCCCCCC[C@@H]1CC(=O)N[C@@H]([C@@H](C)O)C(=O)N[C@H](C)C(=O)N[C@@H](Cc2ccc(O)cc2)C(=O)N[C@@H](C(C)C)C(=O)N2C[C@H](O)C[C@H]2C(=O)N[C@@H]([C@@H](C)O)C(=O)N[C@@H]([C@@H](C)O)C(=O)N2CC[C@H](O)[C@H]2C(=O)N[C@@H]([C@H](O)CC(N)=O)C(=O)NCC(=O)N[C@@H]([C@@H](C)O)C(=O)N[C@@H](CCCN(CCCN)C(=O)[C@@H](N)CCCN)C(=O)O1	890	30	0.27 (≈ 0.158 µM)	8.7	0.47 (≈ 0.276 µM)	0.07	–	–	–	–	–	–	–	–
CCCCCCCCCCCCC[C@@H]1CC(=O)N[C@@H]([C@@H](C)O)C(=O)N[C@H](C)C(=O)N[C@@H](Cc2ccc(O)cc2)C(=O)N[C@@H](C(C)C)C(=O)N2C[C@H](O)C[C@H]2C(=O)N[C@@H]([C@@H](C)O)C(=O)N[C@@H]([C@@H](C)O)C(=O)N2CC[C@H](O)[C@H]2C(=O)N[C@@H]([C@H](O)CC(N)=O)C(=O)NCC(=O)N[C@@H]([C@@H](C)O)C(=O)N[C@@H](CCCNC(=O)[C@@H](CCCN)N(CCN)CCN)C(=O)O1	630	30	0.31 (≈ 0.179 µM)	11.6	0.31 (≈ 0.179 µM)	0.13	0.54 (≈ 0.311 µM)	0.68 (≈ 0.392 µM)	0.31 (≈ 0.179 µM)	1.4 (≈ 0.807 µM)	0.35 (≈ 0.202 µM)	0.67 (≈ 0.386 µM)	–	–
CCCCCCCCCCCCC[C@@H]1CC(=O)N[C@@H]([C@@H](C)O)C(=O)N[C@H](C)C(=O)N[C@@H](Cc2ccc(O)cc2)C(=O)N[C@@H](C(C)C)C(=O)N2C[C@H](O)C[C@H]2C(=O)N[C@@H]([C@@H](C)O)C(=O)N[C@@H]([C@@H](C)O)C(=O)N2CC[C@H](O)[C@H]2C(=O)N[C@@H]([C@H](O)CC(N)=O)C(=O)NCC(=O)N[C@@H]([C@@H](C)O)C(=O)N[C@@H](CCCNC(=O)[C@H](CCCN)N(CCN)CCN)C(=O)O1	900	100	0.55 (≈ 0.317 µM)	8.7	0.37 (≈ 0.213 µM)	0.33	–	–	–	–	–	–	–	–
CCCCCCCCCCCCC[C@@H]1CC(=O)N[C@H]([C@@H](C)O)C(=O)N[C@H](C)C(=O)N[C@@H](Cc2ccc(O)cc2)C(=O)N[C@@H](C(C)C)C(=O)N2C[C@H](O)C[C@H]2C(=O)N[C@H]([C@@H](C)O)C(=O)N[C@@H]([C@@H](C)O)C(=O)N2CC[C@H](O)[C@H]2C(=O)N[C@@H]([C@H](O)CC(N)=O)C(=O)NCC(=O)N[C@H]([C@@H](C)O)C(=O)N[C@@H](CCCN(CCCN)C(=O)[C@@H](CCCN)N(CCN)CCN)C(=O)O1	250	100	0.26 (≈ 0.145 µM)	5.8	0.39 (≈ 0.218 µM)	0.12	0.28 (≈ 0.156 µM)	0.31 (≈ 0.173 µM)	0.37 (≈ 0.207 µM)	1.2 (≈ 0.67 µM)	0.56 (≈ 0.313 µM)	0.58 (≈ 0.324 µM)	0.37 (≈ 0.207 µM)	0.37 (≈ 0.207 µM)
CCCCCCCCCCCCC[C@@H]1CC(=O)N[C@H]([C@@H](C)O)C(=O)N[C@H](C)C(=O)N[C@@H](Cc2ccc(O)cc2)C(=O)N[C@@H](C(C)C)C(=O)N2C[C@H](O)C[C@H]2C(=O)N[C@H]([C@@H](C)O)C(=O)N[C@@H]([C@@H](C)O)C(=O)N2CC[C@H](O)[C@H]2C(=O)N[C@@H]([C@H](O)CC(N)=O)C(=O)NCC(=O)N[C@H]([C@@H](C)O)C(=O)N[C@@H](CCCN(CCN)CCN)C(=O)O1	1400	10	0.42 (≈ 0.259 µM)	13.3	0.1 (≈ 0.0617 µM)	0.05	–	–	–	–	–	–	–	–
CCCCCCCCCCCCC[C@@H]1CC(=O)N[C@H]([C@@H](C)O)C(=O)N[C@H](C)C(=O)N[C@@H](Cc2ccc(O)cc2)C(=O)N[C@@H](C(C)C)C(=O)N2C[C@H](O)C[C@H]2C(=O)N[C@H]([C@@H](C)O)C(=O)N[C@@H]([C@@H](C)O)C(=O)N2CC[C@H](O)[C@H]2C(=O)N[C@@H]([C@H](O)CC(N)=O)C(=O)NCC(=O)N[C@H]([C@@H](C)O)C(=O)N[C@@H](CCCNC(=O)[C@H](N)CCCN)C(=O)O1	3600	30	0.33 (≈ 0.2 µM)	–	0.12 (≈ 0.0728 µM)	0.1	–	–	–	–	–	–	–	–
CCCCCOc1ccc(-c2ccc(-c3ccc(C(=O)N[C@@H]4C[C@@H](O)[C@@H](O)NC(=O)C5[C@@H](OC)[C@@H](OC)CN5C(=O)[C@H]([C@@H](C)O)NC(=O)[C@H]([C@H](O)[C@@H](O)c5ccc(O)cc5)NC(=O)[C@@H]5C[C@@H](O)CN5C(=O)[C@H]([C@@H](C)O)NC4=O)cc3)cc2)cc1 (stereo partly specified)	18000	–	–	–	–	–	–	–	–	–	–	–	–	–
CCCCCCCCCCCCC[C@@H]1CC(=O)N[C@H]([C@@H](C)O)C(=O)N[C@H](C)C(=O)N[C@@H](Cc2ccc(O)cc2)C(=O)N[C@@H](C(C)C)C(=O)N2C[C@H](O)C[C@H]2C(=O)N[C@H]([C@@H](C)O)C(=O)N[C@@H]([C@@H](C)O)C(=O)N2CC[C@H](O)[C@H]2C(=O)N[C@@H]([C@H](O)CC(N)=O)C(=O)NCC(=O)N[C@H]([C@@H](C)O)C(=O)N[C@@H](CCCN(CCCN)C(=O)[C@H](CCCN)N(CCN)CCN)C(=O)O1	280	100	0.31 (≈ 0.173 µM)	8.6	0.45 (≈ 0.251 µM)	0.08	0.31 (≈ 0.173 µM)	0.35 (≈ 0.195 µM)	0.41 (≈ 0.229 µM)	1 (≈ 0.558 µM)	0.63 (≈ 0.352 µM)	0.37 (≈ 0.207 µM)	0.38 (≈ 0.212 µM)	0.35 (≈ 0.195 µM)
CCCCCOc1ccc(-c2ccc(-c3ccc(C(=O)N[C@H]4C[C@@H](O)[C@@H](O)NC(=O)[C@@H]5[C@@H](O)[C@@H](C)CN5C(=O)[C@H]([C@@H](C)O)NC(=O)[C@H]([C@H](O)[C@@H](O)c5ccc(O)cc5)NC(=O)[C@@H]5C[C@@H](O)CN5C(=O)[C@H]([C@@H](C)O)NC4=O)cc3)cc2)cc1 ({pTerphenylCO(4''-OnC5H11)}-[Orn(4R-OH,5R-OH)]T[Hyp][hTyr(3S-OH,4S-OH)]T[Pro(3S-OH,4S-Me)]; lactam 1-C) [listing 1 of 2 here]	–	–	0.55 (≈ 0.482 µM)	–	0.014 (≈ 0.0123 µM)	–	–	–	–	–	–	–	–	–
CCCCCOc1ccc(-c2ccc(-c3ccc(C(=O)N[C@H]4C[C@@H](O)[C@@H](O)NC(=O)[C@@H]5[C@@H](O)[C@@H](C)CN5C(=O)[C@H]([C@@H](C)O)NC(=O)[C@H]([C@H](O)[C@@H](O)c5ccc(O)cc5)NC(=O)[C@@H]5C[C@@H](O)CN5C(=O)[C@H]([C@@H](C)O)NC4=O)cc3)cc2)cc1 ({pTerphenylCO(4''-OnC5H11)}-[Orn(4R-OH,5R-OH)]T[Hyp][hTyr(3S-OH,4S-OH)]T[Pro(3S-OH,4S-Me)]; lactam 1-C) [listing 2 of 2 here]	–	1	–	–	–	0.22	–	–	–	–	–	–	–	–
CCCCCCCCCCCCC[C@@H]1CC(=O)N[C@H]([C@@H](C)O)C(=O)N[C@H](C)C(=O)N[C@@H](Cc2ccc(O)cc2)C(=O)N[C@@H](C(C)C)C(=O)N2C[C@H](O)C[C@H]2C(=O)N[C@H]([C@@H](C)O)C(=O)N[C@@H]([C@@H](C)O)C(=O)N2CC[C@H](O)[C@H]2C(=O)N[C@@H]([C@H](O)CC(N)=O)C(=O)NCC(=O)N[C@H]([C@@H](C)O)C(=O)N[C@@H](CCCN)C(=O)O1 [FR-901469] ([d(aThr)][dA]YV[Hyp][d(aThr)]T[Pro(3S-OH)][Gln(3R-OH)]G[d(aThr)][Orn]; linker N-C via X1)	8500	10	0.54 (≈ 0.352 µM)	> 15	0.07 (≈ 0.0456 µM)	0.22	–	–	–	–	–	–	–	–

From ChEMBL document CHEMBL1134059, “Synthesis and antifungal activities of novel 1,3-beta-D-glucan synthase inhibitors. Part 2” (Bioorg Med Chem Lett, 2001)
